Experimental data reported in patent US12582638B2, “Pharmaceutical composition for treating cancer, containing mTOR-signaling inhibitor as active ingredient” (KOREA ADVANCED INSTITUTE OF SCIENCE AND TECHNOLOGY, priority 2020, dated 2026).

Legend:
[1] = test system: A375; experiment: Cell viability, CellTiterGlo, 72 hours; type: cell-based; conditions: Homo sapiens, A-375, A375 cells, Skin
Method: (§1) In addition to the colorectal cells, 120 cancer cell lines treated with various concentrations of lomitapide were assayed for viability. To analyze cell viability, the cells were incubated with lomitapide at 37° C. for 72 hours in a 5% or 10% CO2 atmosphere and then equilibrated at room temperature for 1 hour, followed by addition of CellTiterGlo reagent (Promega). One hour later, luminescence was measured to calculate cell viability (%). The 120 cell lines were purchased from ATCC (American Type Culture Collection, Virginia, USA).

[2] = test system: A498; experiment: Cell viability, CellTiterGlo, 72 hours; type: cell-based; conditions: Homo sapiens, A498 cells, Kidney
Method: as §1

[3] = test system: BEN; experiment: Cell viability, CellTiterGlo, 72 hours; type: cell-based; conditions: BEN cells, Lung
Method: as §1

[4] = test system: DLD-1; experiment: Cell viability, CellTiterGlo, 72 hours; type: cell-based; conditions: Homo sapiens, DLD-1 cells, Colon
Method: as §1

[5] = test system: DU-145; experiment: Cell viability, CellTiterGlo, 72 hours; type: cell-based; conditions: Homo sapiens, DU-145 cells, Prostate
Method: as §1

[6] = test system: HCC827; experiment: Cell viability, CellTiterGlo, 72 hours; type: cell-based; conditions: Homo sapiens, HCC827 cells, Lung
Method: as §1

[7] = test system: HCT-15; experiment: Cell viability, CellTiterGlo, 72 hours; type: cell-based; conditions: Homo sapiens, HCT-15 cells, Colon
Method: as §1

[8] = test system: HCT116; experiment: Cell viability, CellTiterGlo, 72 hours; type: cell-based; conditions: Homo sapiens, HCT-116, HCT116 cells, Colon
Method: as §1

[9] = test system: HT-29; experiment: Cell viability, CellTiterGlo, 72 hours; type: cell-based; conditions: Homo sapiens, HT-29 cells, Colon
Method: as §1

[10] = test system: Hs 746T; experiment: Cell viability, CellTiterGlo, 72 hours; type: cell-based; conditions: Homo sapiens, Hs746T, Hs 746T cells, Stomach
Method: as §1

[11] = test system: Ishikawa; experiment: Cell viability, CellTiterGlo, 72 hours; type: cell-based; conditions: Homo sapiens, Ishikawa cells, Endometrium
Method: as §1

[12] = test system: LOU-NH91; experiment: Cell viability, CellTiterGlo, 72 hours; type: cell-based; conditions: LOU-NH91 cells, Lung
Method: as §1

[13] = test system: LOVO; experiment: Cell viability, CellTiterGlo, 72 hours; type: cell-based; conditions: Homo sapiens, LOVO cells, Colon
Method: as §1

[14] = test system: LP-1; experiment: Cell viability, CellTiterGlo, 72 hours; type: cell-based; conditions: Homo sapiens, LP-1 cells, Blood
Method: as §1

[15] = test system: MDA MB 435; experiment: Cell viability, CellTiterGlo, 72 hours; type: cell-based; conditions: Homo sapiens, MDA MB 435 cells, Skin
Method: as §1

[16] = test system: MOLT-4; experiment: Cell viability, CellTiterGlo, 72 hours; type: cell-based; conditions: Homo sapiens, MOLT-4 cells, Blood
Method: as §1

[17] = test system: Mia PaCA 2; experiment: Cell viability, CellTiterGlo, 72 hours; type: cell-based; conditions: Homo sapiens, Mia PaCA 2 cells, Pancreas
Method: as §1

[18] = test system: NCI-H1048; experiment: Cell viability, CellTiterGlo, 72 hours; type: cell-based; conditions: Homo sapiens, NCI-H1048 cells, Lung
Method: as §1

[19] = test system: NCI-H1581; experiment: Cell viability, CellTiterGlo, 72 hours; type: cell-based; conditions: Homo sapiens, NCI-H1581 cells, Lung
Method: as §1

[20] = test system: NCI-N87; experiment: Cell viability, CellTiterGlo, 72 hours; type: cell-based; conditions: Homo sapiens, NCI-N87 cells, Stomach
Method: as §1

[21] = test system: OCI-AML3; experiment: Cell viability, CellTiterGlo, 72 hours; type: cell-based; conditions: Homo sapiens, OCI-AML-3, OCI-AML3 cells, Blood
Method: as §1

[22] = test system: OCI-LY19; experiment: Cell viability, CellTiterGlo, 72 hours; type: cell-based; conditions: Homo sapiens, OCI-LY19 cells, Blood
Method: as §1

[23] = test system: SK-ES-1; experiment: Cell viability, CellTiterGlo, 72 hours; type: cell-based; conditions: Homo sapiens, SK-ES1, SK-ES-1 cells, Bone
Method: as §1

[24] = test system: SW620; experiment: Cell viability, CellTiterGlo, 72 hours; type: cell-based; conditions: Homo sapiens, SW-620, SW620 cells, Colon
Method: as §1

[25] = test system: U118MG; experiment: Cell viability, CellTiterGlo, 72 hours; type: cell-based; conditions: Homo sapiens, U-118-MG, U118MG cells, Brain
Method: as §1

[26] = test system: U2OS; experiment: Cell viability, CellTiterGlo, 72 hours; type: cell-based; conditions: Homo sapiens, U2OS cells, Bone
Method: as §1

[27] = test system: p-S6K, p-S6, LC3; experiment: Cell signaling assay, western blot, SNU2; type: cell-based, human; conditions: 0, 5, and 10 μM, FIG. 7g
Method: Cells treated with various concentration (0, 5, and 10 μM) of lomitapide were lysed with RIPA buffer containing a protease-inhibitor cocktail. The whole-cell lysate was incubated on ice for 30 minutes. After centrifugation at 4° C. and 13,300×g for 15 minutes, the supernatant was collected. For use as controls, cells were treated with 1 μM of torin, known as an mTOR inhibitor.
For western blot analysis, the supernatant was loaded onto 10% SDS-PAGE gel. The separated proteins were blotted onto a PVDF membrane. Then, the blots were incubated with antibodies at 4° C. for 12 hours as follows (Table 3).
Then, the blots were washed with TBST (a mixture of tris-buffered saline (TBS) and Tween 20), incubated with horseradish peroxidase-conjugated secondary antibody (Cell signaling) at 37° C. for 1 hour, and washed, followed by detecting enhanced chemiluminescence (ECL; Amersham).

[28] = test system: B16F10 melanoma; experiment: Mouse homograft tumor model, B16F10 melanoma; type: in vivo; conditions: B16F10 in C57B6/N mice
Method: For mouse homograft tumor model, experiments were conducted using female C57B6/N mice (wild-type, 6 weeks old) with MC38 colorectal cancer and B16F10 melanoma cell lines. MC38 colorectal cancer and B16F10 melanoma cell lines were each subcutaneously injected at a dose of 2×10^5 cells. Lomitapide used in the two models was formulated with 45% saline, 40% PEG300, 5% Tween-80, and 10% DMSO.
For B16F10 skin melanoma, from 10 days after the tumor injection, lomitapide was intraperitoneally injected at a dose of 40 mg/kg three times at days 3, 5, and 7, and anti-PD-1 mAb (clone RMP1-14, BioXCell, West Lebanon, NH, USA) or rat IgG2a iso-type control (clone 2A3, BioXCell, BE0089) was administered at a dose of 20 mg/kg at days 1, 3, 5, and 7. The mice were euthanized immediately when signs of pain were observed, the body weight was reduced by 20% compared to the normal weight, or the tumor volume exceeded 1,000 mm^3 (FIGS. 19a and 19b).

SMILES: O=C(NC1CCN(CCCCC2(C(=O)NCC(F)(F)F)c3ccccc3-c3ccccc32)CC1)c1ccccc1-c1ccc(C(F)(F)F)cc1 [lomitapide, N-(2,2,2-trifluoroethyl)-9-[4-[4-[[[4′-(trifluoromethyl)[1,1′-biphenyl]2-yl]carbonyl]amino]-1-piperidinyl]butyl]-9H-fluoren-9-carboxamide]
- IC50 [1]: 1.8 µM
- IC50 [2]: 2.9 µM
- IC50 [3]: 4.2 µM
- IC50 [4]: 4.5 µM
- IC50 [5]: 5 µM
- IC50 [6]: 4.1 µM
- IC50 [7]: 3.5 µM
- IC50 [8]: 5 µM
- IC50 [9]: 1.6 µM
- IC50 [10]: 2.5 µM
- IC50 [11]: 3.6 µM
- IC50 [12]: 5.7 µM
- IC50 [13]: 3.4 µM
- IC50 [14]: 5.4 µM
- IC50 [15]: 3 µM
- IC50 [16]: 3.6 µM
- IC50 [17]: 2.9 µM
- IC50 [18]: 5.5 µM
- IC50 [19]: 3.7 µM
- IC50 [20]: 3.3 µM
- IC50 [21]: 2.1 µM
- IC50 [22]: 2.8 µM
- IC50 [23]: 3.5 µM
- IC50 [24]: 3.6 µM
- IC50 [25]: 2.5 µM
- IC50 [26]: 2.8 µM
- conversion from LC3I into LC3II [27]: increased induction of conversion from LC3I into LC3II
- phosphorylation levels of target proteins (p-S6K, p-S6) ([27]; dose-dependent): remarkably decreased phosphorylation levels
- tumor growth compared to the groups treated with the anti-PD-1 mAb ([28]; lomitapide 40 mg/kg i.p., anti-PD-1 mAb 20 mg/kg): greatly suppressed and reduced
- tumor growth compared to the control ([28]; lomitapide 40 mg/kg intraperitoneally three times): significantly suppressed and reduced tumor growth
